What is called IC50 is the point on the concentration scale where inhibition reaches its midpoint.

The target of one assay is T1, PI3K alpha (Homo sapiens, UniProt P42336).
T1 construct: p85(iSH2) fusion partner (see partner chain) (N); His tag (C); made in house; host or cells: baculovirus; Tn5 (Trichoplusia ni) or TiniPro insect cells
Description: PI3K alpha kinase assay (Kinase-Glo luminescence). Type of assay: biochemical. The essentials:
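Enzyme 10 nM PI3Kα EMV B1075; ATP 1 μM; PI 10 μg/mL; Tris-HCl pH 7.5 10 mM, MgCl2 3 mM, NaCl 50 mM, CHAPS 0.05%, DTT 1 mM; 60 min RT; Kinase-Glo luminescence; 4-parameter IC50 fit, 8 concentrations, single points.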
A general note: In Kinase-Glo more light means more ATP remaining.

The target in the next assay is T2, PI3K beta (Homo sapiens, UniProt P42338).
T2 construct: for the full-length p110-b subunit are generated and fused by overlapping PCR; p85(iSH2) fusion partner (see partner chain) (N); His tag (C); made in house; host or cells: baculovirus; Tn5 (Trichoplusia ni) or TiniPro insect cells
T2 sequence (P42338 with tags, fused parts or gaps limits assumed): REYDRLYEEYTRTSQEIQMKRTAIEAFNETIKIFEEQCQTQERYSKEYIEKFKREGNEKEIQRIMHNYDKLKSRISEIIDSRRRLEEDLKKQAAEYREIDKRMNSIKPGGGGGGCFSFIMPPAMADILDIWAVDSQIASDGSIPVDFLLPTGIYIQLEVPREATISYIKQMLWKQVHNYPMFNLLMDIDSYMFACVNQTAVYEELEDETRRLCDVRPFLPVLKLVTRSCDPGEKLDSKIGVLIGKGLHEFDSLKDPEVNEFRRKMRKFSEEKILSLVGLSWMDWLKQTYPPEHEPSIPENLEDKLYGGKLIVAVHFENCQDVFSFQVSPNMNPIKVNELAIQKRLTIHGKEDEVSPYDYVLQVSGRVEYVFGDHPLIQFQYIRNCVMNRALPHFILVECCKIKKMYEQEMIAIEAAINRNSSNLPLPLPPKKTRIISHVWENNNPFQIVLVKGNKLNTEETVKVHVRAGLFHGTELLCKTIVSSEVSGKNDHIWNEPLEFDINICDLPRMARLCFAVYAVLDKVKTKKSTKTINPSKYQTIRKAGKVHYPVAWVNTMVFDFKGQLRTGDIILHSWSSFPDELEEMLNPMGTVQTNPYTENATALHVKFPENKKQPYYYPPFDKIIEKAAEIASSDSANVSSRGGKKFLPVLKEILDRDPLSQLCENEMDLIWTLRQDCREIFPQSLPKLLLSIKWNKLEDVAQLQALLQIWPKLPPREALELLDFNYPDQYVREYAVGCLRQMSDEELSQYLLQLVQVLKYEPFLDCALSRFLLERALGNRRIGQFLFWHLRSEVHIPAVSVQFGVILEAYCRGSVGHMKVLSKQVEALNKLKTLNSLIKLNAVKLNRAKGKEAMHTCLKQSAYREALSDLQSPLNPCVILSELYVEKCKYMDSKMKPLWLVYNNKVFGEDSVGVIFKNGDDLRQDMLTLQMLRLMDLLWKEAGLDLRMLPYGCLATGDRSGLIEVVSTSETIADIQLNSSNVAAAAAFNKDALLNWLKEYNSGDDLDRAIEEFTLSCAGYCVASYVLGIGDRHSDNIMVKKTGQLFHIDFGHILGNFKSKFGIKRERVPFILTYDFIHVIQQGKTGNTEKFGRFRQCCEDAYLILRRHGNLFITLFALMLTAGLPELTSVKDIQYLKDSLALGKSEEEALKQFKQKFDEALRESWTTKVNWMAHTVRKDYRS
Kind of assay: PI3K beta kinase assay (Kinase-Glo luminescence). Type of assay: biochemical. The essentials: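 Kinase-Glo luminescence after a 60 min room-temperature reaction gives remaining ATP. The reaction holds 25 nM p85(iSH2)-p110β full-length His-tagged construct, 1 μM ATP, 10 μg/mL PI, and eight compound concentrations at 0.45% DMSO final. IC50 values come from a four-parameter logistic fit.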

Assay [1] relates to PKB Ser473 phosphorylation in Rat1-myr-HA-p110 delta cells. Description: Reverse protein array assay, PKB Ser473 phosphorylation in Rat1-myr-p110 delta cells. It counts as cell-based. Particulars: read-out: p-PKB IC50. The essentials: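 After at least 20 h of culture, the p110 isoform-transfected Rat1 lines receive compound in an 8-step dilution series, keeping DMSO at 0.2%, for 30 minutes. Cells are then lysed and lysates arrayed on chips for fluorescence detection of Ser473-phosphorylated PKB.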

T1 sequence (P42336 with tags, fused parts or gaps limits assumed): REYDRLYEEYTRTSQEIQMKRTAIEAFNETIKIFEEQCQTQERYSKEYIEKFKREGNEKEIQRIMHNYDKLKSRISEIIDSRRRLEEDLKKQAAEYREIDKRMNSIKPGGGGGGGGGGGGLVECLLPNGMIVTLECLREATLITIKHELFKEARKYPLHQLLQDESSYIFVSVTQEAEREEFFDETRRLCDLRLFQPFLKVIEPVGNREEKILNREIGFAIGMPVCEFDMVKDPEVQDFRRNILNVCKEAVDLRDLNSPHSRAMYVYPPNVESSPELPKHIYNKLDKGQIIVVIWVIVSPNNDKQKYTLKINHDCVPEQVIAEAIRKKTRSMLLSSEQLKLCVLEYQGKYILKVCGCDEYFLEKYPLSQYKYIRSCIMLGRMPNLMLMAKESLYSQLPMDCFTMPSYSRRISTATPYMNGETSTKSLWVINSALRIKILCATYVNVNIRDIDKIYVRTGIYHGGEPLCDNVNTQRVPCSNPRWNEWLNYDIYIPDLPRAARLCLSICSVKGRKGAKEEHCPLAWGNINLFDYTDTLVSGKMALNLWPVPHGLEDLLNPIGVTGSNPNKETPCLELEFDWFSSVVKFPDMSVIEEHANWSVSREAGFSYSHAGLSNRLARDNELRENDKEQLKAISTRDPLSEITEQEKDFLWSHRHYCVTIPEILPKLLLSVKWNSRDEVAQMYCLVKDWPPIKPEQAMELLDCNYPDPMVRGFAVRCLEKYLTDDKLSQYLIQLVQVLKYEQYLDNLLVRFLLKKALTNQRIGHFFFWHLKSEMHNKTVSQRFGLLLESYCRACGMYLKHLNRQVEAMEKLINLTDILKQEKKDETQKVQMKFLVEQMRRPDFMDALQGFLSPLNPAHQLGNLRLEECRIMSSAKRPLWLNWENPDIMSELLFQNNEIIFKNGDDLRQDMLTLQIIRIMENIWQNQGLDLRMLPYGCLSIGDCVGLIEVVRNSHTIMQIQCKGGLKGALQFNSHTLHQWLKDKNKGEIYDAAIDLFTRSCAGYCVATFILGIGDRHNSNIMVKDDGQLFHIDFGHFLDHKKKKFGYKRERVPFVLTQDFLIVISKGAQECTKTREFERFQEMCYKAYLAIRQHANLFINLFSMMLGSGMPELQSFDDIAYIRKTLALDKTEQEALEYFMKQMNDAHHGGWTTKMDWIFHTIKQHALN

Take `Cc1nn(C)cc1-n1c(=O)n(C)c2cnc3ccc(-c4cncc(C(C)O)c4)cc3c21` (racemic) [Example 217, (rac)-1-(1,3-Dimethyl-1H-pyrazol-4-yl)-8-[5-(1-hydroxy-ethyl)-pyridin-3-yl]-3-methyl-1,3-dihydro-imidazo[4,5-c]quinolin-2-one]: the IC50 at PI3K alpha is 8 nM; on PI3K beta, 13 nM; in assay [1], 249 nM.
The corresponding values for `COc1ccc(-c2ccc3ncc4c(c3c2)n(-c2c(C)nn(C)c2C)c(=O)n4C)cc1OC` [Example 1.9, 8-(3,4-Dimethoxy-phenyl)-3-methyl-1-(1,3,5-trimethyl-1H-pyrazol-4-yl)-1,3-dihydro-imidazo[4,5-c]quinolin-2-one] are 28 nM, 39 nM and 140 nM.
The corresponding values for `COc1ccc(-c2ccc3ncc4c(c3c2)n(-c2ccnn2C)c(=O)n4C)cn1` [Example 2.2, 8-(6-Methoxy-pyridin-3-yl)-3-methyl-1-(2-methyl-2H-pyrazol-3-yl)-1,3-dihydro-imidazo[4,5-c]quinolin-2-one] are 62 nM, 278 nM and 541 nM.
Consider `COc1ccc(-c2ccc3ncc4c(c3c2)n(-c2cnn(C)c2C)c(=O)n4C)cn1` [Example 2.9, 1-(1,5-Dimethyl-1H-pyrazol-4-yl)-8-(6-methoxy-pyridin-3-yl)-3-methyl-1,3-dihydro-imidazo[4,5-c]quinolin-2-one], for which the IC50 at PI3K alpha was 43 nM; on PI3K beta, 166 nM; in assay [1], 165 nM.
The corresponding values for `CCOc1ccc(-c2ccc3ncc4c(c3c2)n(-c2cn(C)nc2Cl)c(=O)n4C)cn1` [Example 3.8, 1-(3-Chloro-1-methyl-1H-pyrazol-4-yl)-8-(6-ethoxy-pyridin-3-yl)-3-methyl-1,3-dihydro-imidazo[4,5-c]quinolin-2-one] are 16 nM, 123 nM and 37 nM.
For `Cc1c(-n2c(=O)n(C)c3cnc4ccc(-c5ccc(N(C)C)nc5)cc4c32)cnn1C` [Example 4.4, 8-(6-Dimethylamino-pyridin-3-yl)-1-(1,5-dimethyl-1H-pyrazol-4-yl)-3-methyl-1,3-dihydro-imidazo[4,5-c]quinolin-2-one], the IC50 was determined as 45 nM at PI3K alpha, 733 nM on PI3K beta and 155 nM in assay [1].
The corresponding values for `Cc1nn(C(C)C)cc1-n1c(=O)n(C)c2cnc3ccc(-c4cnc(N(C)C)nc4)cc3c21` [Example 6.1, 8-(2-Dimethylamino-pyrimidin-5-yl)-1-(1-isopropyl-3-methyl-1H-pyrazol-4-yl)-3-methyl-1,3-dihydro-imidazo[4,5-c]quinolin-2-one] are 29 nM, 227 nM and 90 nM.
Consider `Cc1nn(C)cc1-n1c(=O)n(C)c2cnc3ccc(-c4cccnc4)cc3c21` [Example 10.2, 1-(1,3-Dimethyl-1H-pyrazol-4-yl)-3-methyl-8-pyridin-3-yl-1,3-dihydro-imidazo[4,5-c]quinolin-2-one], for which the IC50 on PI3K alpha is 16 nM; on PI3K beta, 86 nM; in assay [1], 197 nM.
The matching figures for `CCn1cc(-n2c(=O)n(C)c3cnc4ccc(-c5ccc(CO)nc5)cc4c32)c(C)n1` [Example 16.1, 1-(1-ethyl-3-methyl-1H-pyrazol-4-yl)-8-(6-hydroxymethyl-pyridin-3-yl)-3-methyl-1,3-dihydro-imidazo[4,5-c]quinolin-2-one]: 33 nM, 228 nM and 130 nM.
`Cc1nn(C)cc1-n1c(=O)n(C)c2cnc3ccc(-c4cncc(S(C)(=O)=O)c4)cc3c21` [Example 22, 1-(1,3-Dimethyl-1H-pyrazol-4-yl)-8-(5-methanesulfonyl-pyridin-3-yl)-3-methyl-1,3-dihydro-imidazo[4,5-c]quinolin-2-one]: the IC50 at PI3K alpha was found to be 6 nM; at PI3K beta, 11 nM; in assay [1] it was 297 nM.
The matching figures for `Cc1nn(CC(=O)N(C)C)c(C)c1-n1c(=O)n(C)c2cnc3ccc(-c4cnc(N)c(C(F)(F)F)c4)cc3c21` [Example 25.2, 2-{4-[8-(6-Amino-5-trifluoromethyl-pyridin-3-yl)-3-methyl-2-oxo-2,3-dihydro-imidazo[4,5-c]quinolin-1-yl]-3,5-dimethyl-pyrazol-1-yl}-N,N-dimethyl-acetamide]: 13 nM, 578 nM and 247 nM.
The matching figures for `Cc1nn(C)c(C)c1-n1c(=O)n(C)c2cnc3ccc(-c4cnc(N)c(C(F)(F)F)c4)cc3c21` [Example 25.3, 8-(6-Amino-5-trifluoromethyl-pyridin-3-yl)-3-methyl-1-(1,3,5-trimethyl-1H-pyrazol-4-yl)-1,3-dihydro-imidazo[4,5-c]quinolin-2-one]: 59 nM, 48 nM and 59 nM.
The matching figures for `Cc1nn(C(C)C)cc1-n1c(=O)n(C)c2cnc3ccc(-c4cnc(N)c(C(F)(F)F)c4)cc3c21` [Example 25.4, 8-(6-Amino-5-trifluoromethyl-pyridin-3-yl)-1-(1-isopropyl-3-methyl-1H-pyrazol-4-yl)-3-methyl-1,3-dihydro-imidazo[4,5-c]quinolin-2-one]: 12 nM, 16 nM and 9 nM.
As for `Cc1noc(C)c1-n1c(=O)n(C)c2cnc3ccc(-c4cnc(N)c(C(F)(F)F)c4)cc3c21` [Example 25.5, 8-(6-Amino-5-trifluoromethyl-pyridin-3-yl)-1-(3,5-dimethyl-isoxazol-4-yl)-3-methyl-1,3-dihydro-imidazo[4,5-c]quinolin-2-one], the IC50 was determined as 30 nM on PI3K alpha, 30 nM at PI3K beta and 157 nM in assay [1].
On to `Cc1nn(C)cc1-n1c(=O)n(C)c2cnc3ccc(-c4cncnc4)cc3c21` [Example 26, 1-(1,3-Dimethyl-1H-pyrazol-4-yl)-3-methyl-8-pyrimidin-5-yl-1,3-dihydro-imidazo[4,5-c]quinolin-2-one], for which the IC50 worked out at 103 nM at PI3K alpha, 517 nM at PI3K beta and 450 nM in assay [1].
`Cc1nn(C)cc1-n1c(=O)n(C)c2cnc3ccc(-c4ccc(OCC5CC5)nc4)cc3c21` [Example 42, 8-(6-Cyclopropylmethoxy-pyridin-3-yl)-1-(1,3-dimethyl-1H-pyrazol-4-yl)-3-methyl-1,3-dihydro-imidazo[4,5-c]quinolin-2-one]: the IC50 on PI3K alpha came to 70 nM; in assay [1] it was 158 nM.
The matching figures for `Cc1nn(C)cc1-n1c(=O)n(C)c2cnc3ccc(-c4ccc5c(c4)CCN5C)cc3c21` [Example 50, 1-(1,3-Dimethyl-1H-pyrazol-4-yl)-3-methyl-8-(1-methyl-2,3-dihydro-1H-indol-5-yl)-1,3-dihydro-imidazo[4,5-c]quinolin-2-one]: 188 nM and 570 nM.
The matching figures for `Cc1nn(CC(=O)N(C)C)c(C)c1-n1c(=O)n(C)c2cnc3ccc(-c4ccc(-n5cccn5)cc4)cc3c21` [Example 51.4, 2-{3,5-Dimethyl-4-[3-methyl-2-oxo-8-(4-pyrazol-1-yl-phenyl)-2,3-dihydro-imidazo[4,5-c]quinolin-1-yl]pyrazol-1-yl}-N,N-dimethyl-acetamide]: 22 nM and 223 nM.
The corresponding values for `Cc1nn(C)cc1-n1c(=O)n(C)c2cnc3ccc(-c4cccc(OC(C)C)c4F)cc3c21` [Example 83, 1-(1,3-Dimethyl-1H-pyrazol-4-yl)-8-(2-fluoro-3-isopropoxy-phenyl)-3-methyl-1,3-dihydro-imidazo[4,5-c]quinolin-2-one] are 74 nM and 508 nM.
Consider `CCn1cc(-n2c(=O)n(C)c3cnc4ccc(-c5ccc(COC)nc5)cc4c32)c(C)n1` [Example 104, 1-(1-Ethyl-3-methyl-1H-pyrazol-4-yl)-8-(6-methoxymethyl-pyridin-3-yl)-3-methyl-1,3-dihydro-imidazo[4,5-c]quinolin-2-one], for which the IC50 at PI3K alpha was determined as 79 nM; in assay [1] it was 110 nM.
The matching figures for `CCOc1ccc(-c2ccc3ncc4c(c3c2)n(-c2cn(CCOC)nc2C)c(=O)n4C)cn1` [Example 131, 8-(6-Ethoxy-pyridin-3-yl)-1-[1-(2-methoxy-ethyl)-3-methyl-1H-pyrazol-4-yl]-3-methyl-1,3-dihydro-imidazo[4,5-c]quinolin-2-one]: 161 nM and 127 nM.
Turning to `Cc1cc(-n2c(=O)n(C)c3cnc4ccc(-c5cncc(N6CCOCC6)c5)cc4c32)n(C)n1` [Example 175.2, 1-(2,5-Dimethyl-2H-pyrazol-3-yl)-3-methyl-8-(5-morpholin-4-yl-pyridin-3-yl)-1,3-dihydro-imidazo[4,5-c]quinolin-2-one], the IC50 at PI3K alpha was 199 nM; in assay [1], 360 nM.
In the case of `CCN(CC)C(=O)Cn1cc(-n2c(=O)n(C)c3cnc4ccc(-c5cnc(N6CCCC6)nc5)cc4c32)c(C)n1` [Example 247.1, N,N-Diethyl-2-{3-methyl-4-[3-methyl-2-oxo-8-(2-pyrrolidin-1-yl-pyrimidin-5-yl)-2,3-dihydro-imidazo[4,5-c]quinolin-1-yl]-pyrazol-1-yl}-acetamide], the values for the IC50 (on PI3K alpha; in assay [1]) were 93 nM and 157 nM, respectively.

The values above are taken from US20140005163A1 (NOVARTIS AG, priority 2010, published 2014).
